Read-outs that look alike come from different tables or passages of the source.
Tests used:
human BRS3 [1] = target: T1, human BRS3 (Homo sapiens, UniProt P32247); assay: [125I]-dY-peptide radioligand binding assay (filtration, membranes)
T1 construct: expressed in transfected cells
T1 sequence (P32247 1-399): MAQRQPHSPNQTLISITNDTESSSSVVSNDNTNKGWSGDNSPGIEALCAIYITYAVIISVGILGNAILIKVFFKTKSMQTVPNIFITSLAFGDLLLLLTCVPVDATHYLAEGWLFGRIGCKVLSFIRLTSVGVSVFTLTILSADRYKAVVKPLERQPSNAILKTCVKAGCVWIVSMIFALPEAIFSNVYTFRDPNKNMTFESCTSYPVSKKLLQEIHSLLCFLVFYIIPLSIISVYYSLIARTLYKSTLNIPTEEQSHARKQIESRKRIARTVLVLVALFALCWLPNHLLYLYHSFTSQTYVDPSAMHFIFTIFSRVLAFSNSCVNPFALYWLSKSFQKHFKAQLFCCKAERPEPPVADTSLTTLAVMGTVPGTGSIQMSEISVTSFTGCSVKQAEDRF
Method: Dissociated cells were collected by centrifuging at 1000 rpm for 10 minutes. Cell pellets were resuspended and homogenized at 4° C. using a Polytron homogenizer (setting 40, 20 stokes) in approximately 10 mL membrane preparation buffer (10 mM Tris pH 7.4, 0.01 mM Pefabloc, 10 μM phosphoramidon and 40 μg/mL Bacitracin) per T175 flask. After centrifugation at 2200 rpm (1000×g) for 10 minutes at 4° C., the supernatant was transferred to a clean centrifuge tube and spun at 18,000 rpm (38,742×g) for 15 minutes. at 4° C.
The filters were washed five times with ice-cold washing buffer (1×PBS without Mg^++ and Ca^++). The radioactivity was determined by adding 30 μl of microscintillant/well after each plate was dried at room temperature overnight or placed at 50° C. for 1 hr.
A Packard Top Count was used to read the filter plates. The data in % inhibition of binding was plotted vs. the log molar concentration of receptor ligand (compound). The IC50 was reported as the inflection point of the resulting sigmoidal curve. […] The binding assays for the rat and mouse Bombesin Receptor Subtype 3 (BRS3) were performed in a similar fashion.

human BRS3 [2] = target: T1, human BRS3; assay: Aequorin bioluminescent assay to measure intracellular Ca++ (HEK293AEQ cells); type: cell-based; conditions: read-out: human BRS-3 EC50
Method: HEK293/AEQ cell lines stably expressing either human, rat or mouse BRS3 cDNA were generated using standard cell biology techniques and were used for all functional assays and to prepare membranes for the rat BRS3 binding assay. […] The transfected cells were used to prepare membranes for the [^3H]-biphenyl binding assay and for the functional assays. The cells were maintained in culture under the same conditions used for the human and rat stable BRS3 HEK293AEQ cell lines. All cells were grown as attached monolayers to approximately 90% confluency in tissue culture flasks under the appropriate media in an incubator at 37° C. with 5% CO2. Cells were passed 1:3 to 1:5 twice a week depending on the rate of growth.
The same media (8 mL) containing 20 μM coelenterzine was added to the cells and incubated at 37° C. for 1 hr. The media was aspirated and the flasks rinsed with 6 mL ECB buffer (140 mM NaCl, 20 mM KCl, 20 mM HEPES, 5 mM glucose, 1 mM MgCl, 1 mM CaCl, 0.1 mg/mL BSA, pH 7.4). The cells were dissociated with a rubber-tipped scraper in 6 mL of fresh ECB buffer and collected by centrifugation at 2500 rpm for 5 minutes. The cell pellets were resuspended in ECB buffer to a concentration of 200,000 cells/mL and were either used right away or quickly frozen in liquid nitrogen for storage at −80° C. for up to six weeks.
The Aequorin assay itself was performed in 96-well format using a Wallac Microbeta luminometer equipped with microinjector module. Compounds in DMSO (0.5% final concentration) were titrated in the plates at 2× concentration in a volume of 0.1 mL ECB buffer. The cells (20,000 per well) were then injected in 0.1 mL ECB buffer and the bioluminescence monitored for 30 seconds. Alternatively, total bioluminescence was determined over 10 minutes. The bioluminescent readings were plotted vs. the log molar concentration of receptor ligand (compound). The EC50 for activation was reported as the inflection point of the resulting sigmoidal curve.

[3] = Bombesin Subtype-3 Receptor agonism, method C, racemic mixture or the more potent enantiomer after HPLC separation
[4] = Bombesin Subtype-3 Receptor Binding, method A, racemic mixture or the more potent enantiomer after HPLC separation, read-out: human BRS-3 IC50

Structure (SMILES)	IC50 (human BRS3 [1]) [µM]	EC50 (human BRS3 [2]; [3]) [µM]	IC50 (human BRS3 [1]; read-out: human BRS-3 IC50) [µM]	EC50 (human BRS3 [2]) [µM]	IC50 (human BRS3 [1]; [4]) [µM]
Cc1ccc2c(c1C)N(S(=O)(=O)c1ccc(C(C)(C)C)cc1)Cc1ccc(C(F)(F)F)nc1N2 (racemic) [Example 251, 6-[(4-tert-Butylphenyl)sulfonyl]-7,8-dimethyl-2-(trifluoromethyl)-6,11-dihydro-5H-pyrido[2,3-b][1,5]benzodiazepine]	0.001	0.1	–	–	–
CC(C)(O)c1nc(-c2cccc3c2N(S(=O)(=O)c2ccc(OC(F)(F)F)cc2)Cc2ccc(C(F)(F)F)nc2N3)no1 (racemic) [Example 1, 2-{3-[6-{[4-(Trifluoromethoxy)phenyl]sulfonyl}-2-(trifluoromethyl)-6,11-dihydro-5H-pyrido[2,3-b][1,5]benzodiazepin-7-yl]-1,2,4-oxadiazol-5-yl}propan-2-ol]	0.0036	0.073	–	–	–
CC(C)(O)c1nc(C2(c3cccc4c3N(S(=O)(=O)c3ccc(OC(F)(F)F)cc3)Cc3ccc(C(F)(F)F)nc3N4)CCC2)no1 [Example 531, 2-(3-{1-[6-{[4-(Trifluoromethoxy)phenyl]sulfonyl}-2-(trifluoromethyl)-6,11-dihydro-5H-pyrido[2,3-b][1,5]benzodiazepin-7-yl]cyclobutyl}-1,2,4-oxadiazol-5-yl)propan-2-ol]	–	–	0.00065	0.094	–
O=S(=O)(c1ccc(C(F)(F)F)cc1)N1Cc2ccc(C(F)(F)F)nc2Nc2cccc(-c3noc(CO)n3)c21 (racemic) [Example 6, [3-(2-(Trifluoromethyl)-6-{[4-(trifluoromethyl)phenyl]sulfonyl}-6,11-dihydro-5H-pyrido[2,3-b]-[1,5]benzodiazepin-7-yl)-1,2,4-oxadiazol-5-yl]methanol]	–	0.052	–	–	0.0064
CC(C)(C)c1ccc(S(=O)(=O)N2Cc3ccc(C(F)(F)F)nc3Nc3ccc4ncccc4c32)cc1 [Example 316, 13-[(4-tert-Butylphenyl)sulfonyl]-9-(trifluoromethyl)-12,13-dihydro-7H-pyrido[2′,3′:5,6][1,4]diazepino[2,3-ƒ]quinoline]	0.00064	0.048	–	–	–
CC(C)(O)c1nc(-c2cccc3c2N(S(=O)(=O)c2ccc(C4(C(F)(F)F)CC4)cc2)Cc2ccc(C(F)(F)F)nc2N3)no1 (racemic) [Example 4, 2-{3-[2-(Trifluoromethyl)-6-({4-[1-(trifluoromethyl)cyclopropyl]phenyl}sulfonyl)-6,11-dihydro-5H-pyrido[2,3-b][1,5]benzodiazepin-7-yl]-1,2,4-oxadiazol-5-yl}-2-propanol]	–	0.139	–	–	0.0033
CC(C)(O)c1nc(-c2cccc3c2N(S(=O)(=O)c2ccc(C(F)(F)F)cc2)Cc2ccc(C(F)(F)F)nc2N3)no1 (racemic) [Example 2, 2-[3-(2-(Trifluoromethyl)-6-{[4-(trifluoromethyl)phenyl]sulfonyl}-6,11-dihydro-5H-pyrido[2,3-b][1,5]benzodiazepin-7-yl)-1,2,4-oxadiazol-5-yl]propan-2-ol]	–	0.158	–	–	0.0083
CC(C)(C)c1ccc(S(=O)(=O)N2Cc3ccc(C(F)(F)F)nc3Nc3cccc(-c4noc(CO)n4)c32)cc1 (racemic) [Example 5, {3-[6-[(4-tert-Butylphenyl)sulfonyl]-2-(trifluoromethyl)-6,11-dihydro-5H-pyrido[2,3-b]-[1,5]benzodiazepin-7-yl]-1,2,4-oxadiazol-5-yl}methanol]	–	0.034	–	–	0.00075
CC(C)(C)c1ccc(S(=O)(=O)N2Cc3ccc(C(F)(F)F)nc3Nc3ccncc32)cc1 [Example 464, 6-[(4-tert-Butylphenyl)sulfonyl]-2-(trifluoromethyl)-6,11-dihydro-5H-dipyrido[2,3-e:3′,4′-b][1,4]diazepine]	–	0.196	–	–	0.038
CC(C)(C(N)=O)c1cccc2c1N(S(=O)(=O)c1ccc(OC(F)(F)F)cc1)Cc1ccc(C(F)(F)F)nc1N2 [Example 533, 2-Methyl-2-[6-{[4-(trifluoromethoxy)phenyl]sulfonyl}-2-(trifluoromethyl)-6,11-dihydro-5H-pyrido[2,3-b][1,5]-benzodiazepin-7-yl]propanamide]	–	0.016	–	–	0.0022
O=S(=O)(c1ccc(OC(F)(F)F)cc1)N1Cc2ccc(C(F)(F)F)nc2Nc2cccc(-c3noc(CO)n3)c21 (racemic) [Example 7, {3-[6-{[4-(Trifluoromethoxy)phenyl]sulfonyl}-2-(trifluoromethyl)-6,11-dihydro-5H-pyrido[2,3-b]-[1,5]benzodiazepin-7-yl]-1,2,4-oxadiazol-5-yl}methanol]	–	0.033	–	–	0.0029
CC(C)(C)c1ccc(S(=O)(=O)N2Cc3ccc(C(F)(F)F)nc3Nc3cccc(-c4noc(C(C)(C)O)n4)c32)cc1 (racemic) [Example 3, 2-{3-[6-[(4-tert-Butylphenyl)sulfonyl]-2-(trifluoromethyl)-6,11-dihydro-5H-pyrido[2,3-b][1,5]benzodiazepin-7-yl]-1,2,4-oxadiazol-5-yl}propan-2-ol]	–	0.063	–	–	0.0019
CC(C)(C)c1ccc(S(=O)(=O)N2Cc3ccc(C(F)(F)F)nc3Nc3ccc(-c4noc(CO)n4)cc32)cc1 [Example 437, {3-[6-[(4-tert-Butylphenyl)sulfonyl]-2-(trifluoromethyl)-6,11-dihydro-5H-pyrido[2,3-b][1,5]benzodiazepin-8-yl]-1,2,4-oxadiazol-5-yl}methanol]	–	0.121	–	–	0.0041
CC(C)(C)c1ccc(S(=O)(=O)N2Cc3ccc(C(F)(F)F)nc3Nc3ccc(C(C)(C)C(=O)O)cc32)cc1 [Example 374, 2-[6-[(4-tert-Butylphenyl)sulfonyl]-2-(trifluoromethyl)-6,11-dihydro-5H-pyrido[2,3-b][1,5]benzodiazepin-8-yl]-2-methylpropanoic acid]	–	0.13	–	–	0.0049
Cc1ccc2c(n1)N(S(=O)(=O)c1ccc(C(C)(C)C)cc1)Cc1ccc(C(F)(F)F)nc1N2 [Example 536]	–	0.066	–	–	0.0053

From US8153626B2, “Substituted diazepine sulfonamides as bombesin receptor subtype-3 modulators” (Merck Sharp & Dohme Corp., priority 2006, dated 2012)
